Columns and labels:
Type in all cases: functional, Stomach
Mus musculus [1] = assay: Gastroprotective activity in Swiss albino mouse assessed as reduction in HCl/EtOH-induced gastric lesions at 20 mg/kg, po pretreated for 50 mins followed by HCl/EtOH challenge measured after 1 hr; set-up: scale not given: the % may be the effect or the level left
Mus musculus [2] = assay: (§1) Gastroprotective activity in Swiss albino mouse assessed as reduction in HCl/EtOH-induced gastric lesions by measuring lesion index at 100 mg/kg, po pretreated for 50 mins followed by HCl/EtOH challenge measured after 1 hr (reference value: 38.8 +/- 1.6 millimeter)
Mus musculus [3] = assay: Gastroprotective activity in Swiss albino mouse assessed as reduction in HCl/EtOH-induced gastric lesions by measuring lesion index at 30 mg/kg, sc pretreated followed by HCl/EtOH challenge measured after 1 hr (reference value: 38.8 +/- 1.6 millimeter)
Mus musculus [4] = assay: Gastroprotective activity in Swiss albino mouse assessed as reduction in HCl/EtOH-induced gastric lesions by measuring lesion index at 70 mg/kg, ip pretreated followed by HCl/EtOH challenge measured after 1 hr (reference value: 38.8 +/- 1.6 millimeter)
Mus musculus [5] = assay: Gastroprotective activity in Swiss albino mouse assessed as reduction in HCl/EtOH-induced gastric lesions by measuring lesion index at 10 mg/kg, sc pretreated followed by HCl/EtOH challenge measured after 1 hr (reference value: 38.8 +/- 1.6 millimeter)
Mus musculus [6] = assay: as §1, with “20” for “100”, “hr in presence of PG synthesis inhibitor indomethacin” for “hr”
Mus musculus [7] = assay: as §1, with “20” for “100”, “hr in presence of NO synthase inhibitor NG-nitro-L-arginine methyl ester” for “hr”
Mus musculus [8] = assay: as §1, with “20” for “100”, “hr in presence of sulfhydryl blocker N-ethylmaleimide” for “hr”
Mus musculus [9] = assay: as §1, with “20” for “100”, “hr in presence of vanilloid receptor antagonist ruthenium red” for “hr”
Mus musculus [10] = assay: Gastroprotective activity in Swiss albino mouse assessed as reduction in HCl/EtOH-induced gastric lesions by measuring lesion index at 20 mg/kg, po pretreated for 50 mins followed by HCl/EtOH challenge measured after 1 hr (reference value: 38.8 +/- 1.6 millimeter)

SMILES | Activity (Mus musculus [1]) [%] | also measured
O=C(O)c1cc2ccc(O)cc2oc1=O | 60 | –
O=C(O)Cc1cc(=O)oc2cc(O)ccc12 | 68 | –
CC(=O)c1cc2ccc(O)cc2oc1=O | 15 | –
CC(=O)c1cc2cccc(O)c2oc1=O | 41 | –
CCOC(=O)c1cc2cccc(O)c2oc1=O | 15 | –
O=c1cc(CCl)c2ccc(O)cc2o1 | 57 | –
O=c1cc(CN2CCN(CCO)CC2)c2ccc(O)cc2o1 | 65 | –
O=C(Oc1ccccc1)c1cc2ccc(O)cc2oc1=O | 63 | –
CCOC(=O)c1cc2cccc(OC)c2oc1=O | 0 | –
CNCc1cc(=O)oc2cc(O)ccc12 | 49 | –
CCOC(=O)c1cc2ccccc2oc1=O | 35 | –
O=c1cc(CCl)c2c(O)cc(O)cc2o1 | 42 | –
CC(=O)c1cc2ccccc2oc1=O [3-ACETYLCOUMARIN] | 66 | –
Cc1cc(=O)oc2cc(O)cc(O)c12 [5,7-DIHYDROXY-4-METHYLCOUMARIN] | 45 | –
CC1(C)[C@@H](OC(=O)CCC(=O)O)CC[C@]2(C)[C@H]3C(=O)C=C4[C@@H]5C[C@@](C)(C(=O)O)CC[C@]5(C)CC[C@@]4(C)[C@]3(C)CC[C@@H]12 [CARBENOXOLONE] | – | Activity (Mus musculus [2]): 13.1 mm
O=c1ccc2cc(O)c(O)cc2o1 [ESCULETIN] | 17 | –
Cc1cc(=O)oc2cc(O)ccc12 [HYMECROMONE] | 31 | –
COc1ccc2c(c1)c(CC(=O)O)c(C)n2C(=O)c1ccc(Cl)cc1 [INDOMETHACIN] | – | Activity (Mus musculus [3]): 41.1 mm
COC(=O)[C@@H](N)CCCNC(=N)N[N+](=O)[O-] [L-NAME] | – | Activity (Mus musculus [4]): 35.7 mm
Cc1c(OCC(F)(F)F)ccnc1C[S+]([O-])c1nc2ccccc2[nH]1 (stereo not drawn) [LANSOPRAZOLE] | 74 | –
CCN1C(=O)C=CC1=O [N-ETHYLMALEIMIDE] | – | Activity (Mus musculus [5]): 40.1 mm
O=c1cc(CN2CCOCC2)c2ccc(O)cc2o1 [OXAZORONE] | 75 | Activity (Mus musculus [6]): 13.6 mm; Activity (Mus musculus [7]): 34.7 mm; Activity (Mus musculus [8]): 28.8 mm; Activity (Mus musculus [9]): 14.4 mm; Activity (Mus musculus [10]): 10.3 mm
COc1cc2ccc(=O)oc2cc1O [SCOPOLETIN] | 61 | –

Reference: ChEMBL document CHEMBL3867465, “Gastroprotective activity of synthetic coumarins: Role of endogenous prostaglandins, nitric oxide, non-protein sulfhydryls and vanilloid receptors” (2016)
